Experimental data taken from US10053456B2, “Cyclopropanamine compound and use thereof” (Takeda Pharmaceutical Company Limited, priority 2014, dated 2018).
Counter-ions that a name gives are not always drawn.

Tested on: Gad1 H3K4me2 level in rat primary culture neurons
Test: Gad1 H3K4 methylation induction activity in rat primary culture neurons (ChIP, quantitative PCR)
Type: cell-based
Settings: Neuron, 72 h, 3 days culture, control without compound = 100%

Cc1nnc(NC(=O)c2cc([C@@H]3C[C@H]3NC3CCC3)cs2)s1 [Example 118, 4-((1S,2R)-2-(cyclobutylamino)cyclopropyl)-N-(5-methyl-1,3,4-thiadiazol-2-yl)thiophene-2-carboxamide sulfate]
activity at 10 µM: 233%
